Starred links: 1 amine or outer side, 2 acyl side, 3 side chain; linkers in the order of their positions; H or OH if unused. Positions of bridges follow the written chain, without caps; N, C: chain ends. Residues, ends and D or L forms follow the SMILES beside them. *: point of attachment. C18 diacid = O=C(O)CCCCCCCCCCCCCCCCC(=O)*; γGlu = O=C(O)[C@H](CCC(=O)[*:2])N[*:1]; AEEA = NCCOCCOCC(=O)O
Assay: Thioflavin T (ThT) assay: lagtime and peptide recovery
Type: physicochemical
Settings: ThT assay, pH 6.5, 37° C.; assay terminated after 45 hours
In short: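 ThT (final about 1 μM) was added to peptide supernatants at pH 4.0 and 6.5 and incubated at 37 °C with orbital shaking for 45 h. Fluorescence (ex 444/em 485 nm) was read every 20 min, and lag-time was taken as the time to onset of signal rise. Recovery is the RP-UPLC (215 nm) total peak area after vs. before incubation.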

Compared with CC[C@H](C)[C@@H]1NC(=O)[C@H](CCCNC(=N)N)NC(=O)[C@H](CC(=O)O)NC(=O)[C@H](CC(C)C)NC(=O)[C@@H]2CCCN2C(=O)[C@H](CC(C)C)NC(=O)CNC(=O)[C@H](Cc2ccccc2)NC(=O)[C@@H](NC(=O)CNC(=O)[C@H](CCC(N)=O)NC(=O)[C@H](CO)NC(=O)[C@H](CO)NC(=O)CNC(=O)[C@H](CCCCN)NC(=O)[C@H](CCCCN)NC(=O)[C@H](CCC(N)=O)NC(=O)[C@H](C)NC(=O)CNC(=O)[C@@H]2CCCN2C(=O)[C@H](C)NC(=O)[C@H](CCC(N)=O)NC(=O)CNC(=O)[C@@H]2CCCN2C(=O)[C@H](C)NC(=O)[C@H](CCC(N)=O)NC(=O)CNC(=O)[C@@H]2CCCN2C(=O)[C@H](C)NC(=O)[C@H](CCC(N)=O)NC(=O)CNC(=O)COCCOCCNC(=O)COCCOCCNC(=O)CC[C@H](NC(=O)CCCCCCCCCCCCCCCCC(=O)O)C(=O)O)CSSC[C@@H](C(=O)O)NC(=O)CNC(=O)[C@H](CC(C)C)NC(=O)CNC(=O)[C@H](CO)NC(=O)[C@H](CC(C)C)NC(=O)[C@H](CO)NC(=O)CNC1=O [compound 1457] ({C18 diacid-γGlu-AEEA-AEEA}-GQAPGQAPGQAPGAQKKGSSQGCFGLPLDRIGSLSGLGC-OH; disulfide 23-39), CC[C@H](C)[C@@H]1NC(=O)[C@H](CCCNC(=N)N)NC(=O)[C@H](CC(=O)O)NC(=O)[C@H](CC(C)C)NC(=O)[C@@H]2CCCN2C(=O)[C@H](CC(C)C)NC(=O)CNC(=O)[C@H](Cc2ccccc2)NC(=O)[C@@H](NC(=O)CNC(=O)[C@H](CCC(N)=O)NC(=O)[C@H](CO)NC(=O)[C@H](CC(C)C)NC(=O)CNC(=O)[C@H](CCCCN)NC(=O)[C@H](CCCCN)NC(=O)[C@H](CCC(N)=O)NC(=O)[C@H](C)NC(=O)CNC(=O)[C@@H]2CCCN2C(=O)[C@H](C)NC(=O)[C@H](CCC(N)=O)NC(=O)CNC(=O)COCCOCCNC(=O)COCCOCCNC(=O)CC[C@H](NC(=O)CCCCCCCCCCCCCCCCC(=O)O)C(=O)O)CSSC[C@@H](C(=O)O)NC(=O)CNC(=O)[C@H](CC(C)C)NC(=O)CNC(=O)[C@H](CO)NC(=O)[C@H](CC(C)C)NC(=O)[C@H](CO)NC(=O)CNC1=O [compound 1484] ({C18 diacid-γGlu-AEEA-AEEA}-GQAPGAQKKGLSQGCFGLPLDRIGSLSGLGC-OH; disulfide 15-31; C-terminus assumed) is lower in “LagTime (h) at pH 6.5” value: 45 h for the first, 4 h for the second.

Going from CC[C@H](C)[C@@H]1NC(=O)[C@H](CCCNC(=N)N)NC(=O)[C@H](CCC(=O)O)NC(=O)[C@H](CC(C)C)NC(=O)[C@@H]2CCCN2C(=O)[C@H](CC(C)C)NC(=O)CNC(=O)[C@H](Cc2ccccc2)NC(=O)[C@@H](NC(=O)CNC(=O)[C@H](CCC(N)=O)NC(=O)[C@H](CO)NC(=O)[C@H](CC(C)C)NC(=O)CNC(=O)[C@H](CCCCN)NC(=O)[C@H](CCCCN)NC(=O)[C@H](CCC(N)=O)NC(=O)[C@H](C)NC(=O)CNC(=O)[C@H](CCCCN)NC(=O)[C@H](Cc2ccc(O)cc2)NC(=O)[C@H](CCCCN)NC(=O)[C@H](CCCNC(=N)N)NC(=O)[C@H](C)NC(=O)COCCOCCNC(=O)COCCOCCNC(=O)COCCOCCNC(=O)COCCOCCNC(=O)CC[C@H](NC(=O)CC[C@H](NC(=O)CC[C@H](NC(=O)CC[C@H](NC(=O)CC[C@H](NC(=O)CCCCCCCCCCCCCCCCC(=O)O)C(=O)O)C(=O)O)C(=O)O)C(=O)O)C(=O)O)CSSC[C@@H](C(=O)O)NC(=O)CNC(=O)[C@H](CC(C)C)NC(=O)CNC(=O)[C@H](CO)NC(=O)[C@H](CC(C)C)NC(=O)[C@H](CO)NC(=O)CNC1=O [compound 1477] ({C18 diacid-γGlu-γGlu-γGlu-γGlu-γGlu-AEEA-AEEA-AEEA-AEEA}-ARKYKGAQKKGLSQGCFGLPLERIGSLSGLGC-OH; disulfide 16-32) to CC[C@H](C)[C@@H]1NC(=O)[C@H](CCCNC(=N)N)NC(=O)[C@H](CC(=O)O)NC(=O)[C@H](CC(C)C)NC(=O)[C@@H]2CCCN2C(=O)[C@H](CC(C)C)NC(=O)CNC(=O)[C@H](Cc2ccccc2)NC(=O)[C@@H](NC(=O)CNC(=O)[C@H](CCC(N)=O)NC(=O)[C@H](CO)NC(=O)[C@H](CC(C)C)NC(=O)CNC(=O)[C@H](CCCCN)NC(=O)[C@H](CCCCN)NC(=O)[C@H](CCC(N)=O)NC(=O)[C@H](C)NC(=O)CNC(=O)[C@H](CCCCN)NC(=O)[C@H](Cc2ccc(O)cc2)NC(=O)COCCOCCNC(=O)COCCOCCNC(=O)COCCOCCNC(=O)COCCOCCNC(=O)CC[C@H](NC(=O)CC[C@H](NC(=O)CCCCCCCCCCCCCCCCC(=O)O)C(=O)O)C(=O)O)CSSC[C@@H](C(=O)O)NC(=O)CNC(=O)[C@H](CC(C)C)NC(=O)CNC(=O)[C@H](CO)NC(=O)[C@H](CC(C)C)NC(=O)[C@H](CO)NC(=O)CNC1=O [compound 1478] ({C18 diacid-γGlu-γGlu-AEEA-AEEA-AEEA-AEEA}-YKGAQKKGLSQGCFGLPLDRIGSLSGLGC-OH; disulfide 13-29; C-terminus assumed), the “LagTime (h) at pH 6.5” value rises from 23 h to 45 h.

Same assay, conditions: ThT, 37° C., shaking; assay terminated after 45 hours

CC[C@H](C)[C@@H]1NC(=O)[C@H](CCCNC(=N)N)NC(=O)[C@H](CC(=O)O)NC(=O)[C@H](CC(C)C)NC(=O)[C@@H]2CCCN2C(=O)[C@H](CC(C)C)NC(=O)CNC(=O)[C@H](Cc2ccccc2)NC(=O)[C@@H](NC(=O)CNC(=O)[C@H](CCCCN)NC(=O)[C@H](CO)NC(=O)[C@H](CC(C)C)NC(=O)CNC(=O)[C@H](CCCCN)NC(=O)[C@H](CCCCN)NC(=O)[C@H](CCC(N)=O)NC(=O)[C@H](C)NC(=O)CNC(=O)[C@H](CCCCN)NC(=O)[C@H](Cc2ccc(O)cc2)NC(=O)[C@H](CCCCN)NC(=O)[C@H](CCCNC(=N)N)NC(=O)[C@H](C)NC(=O)COCCOCCNC(=O)COCCOCCNC(=O)CC[C@H](NC(=O)CC[C@H](NC(=O)CC[C@H](NC(=O)CC[C@H](NC(=O)CC[C@H](NC(=O)CCCCCCCCCCCCCCCCC(=O)O)C(=O)O)C(=O)O)C(=O)O)C(=O)O)C(=O)O)CSSC[C@@H](C(=O)O)NC(=O)CNC(=O)[C@H](CC(C)C)NC(=O)CNC(=O)[C@H](CO)NC(=O)[C@H](CC(C)C)NC(=O)[C@H](CO)NC(=O)CNC1=O [compound 1470] ({C18 diacid-γGlu-γGlu-γGlu-γGlu-γGlu-AEEA-AEEA}-ARKYKGAQKKGLSKGCFGLPLDRIGSLSGLGC-OH; disulfide 16-32) and CC[C@H](C)[C@@H]1NC(=O)[C@H](CCCNC(=N)N)NC(=O)[C@H](CC(=O)O)NC(=O)[C@H](CC(C)C)NC(=O)[C@@H]2CCCN2C(=O)[C@H](CC(C)C)NC(=O)CNC(=O)[C@H](Cc2ccccc2)NC(=O)[C@@H](NC(=O)CNC(=O)[C@H](CO)NC(=O)[C@H](CO)NC(=O)[C@H](CC(C)C)NC(=O)CNC(=O)[C@H](CCCCN)NC(=O)[C@H](CCCCN)NC(=O)[C@H](CCC(N)=O)NC(=O)[C@H](C)NC(=O)CNC(=O)[C@H](CCCCN)NC(=O)[C@H](Cc2ccc(O)cc2)NC(=O)[C@H](CCCCN)NC(=O)[C@H](CCCNC(=N)N)NC(=O)[C@H](C)NC(=O)[C@H](CCC(N)=O)NC(=O)[C@@H]2CCCN2C(=O)[C@H](Cc2c[nH]cn2)NC(=O)[C@H](CCC(=O)O)NC(=O)[C@H](CCC(N)=O)NC(=O)COCCOCCNC(=O)COCCOCCNC(=O)CC[C@H](NC(=O)CC[C@H](NC(=O)CC[C@H](NC(=O)CC[C@H](NC(=O)CCCCCCCCCCCCCCCCC(=O)O)C(=O)O)C(=O)O)C(=O)O)C(=O)O)CSSC[C@@H](C(=O)O)NC(=O)CNC(=O)[C@H](CC(C)C)NC(=O)CNC(=O)[C@H](CO)NC(=O)[C@H](CC(C)C)NC(=O)[C@H](CO)NC(=O)CNC1=O [compound 1473] ({C18 diacid-γGlu-γGlu-γGlu-γGlu-AEEA-AEEA}-QEHPQARKYKGAQKKGLSSGCFGLPLDRIGSLSGLGC-OH; disulfide 21-37; C-terminus assumed) are the same in “LagTime (h) at pH 4.0” value: 45 h for the first, 45 h for the second.

Compared with CC[C@H](C)[C@@H]1NC(=O)[C@H](CCCNC(=N)N)NC(=O)[C@H](CC(=O)O)NC(=O)[C@H](CC(C)C)NC(=O)[C@@H]2CCCN2C(=O)[C@H](CC(C)C)NC(=O)CNC(=O)[C@H](Cc2ccccc2)NC(=O)[C@@H](NC(=O)CNC(=O)[C@H](CCCCN)NC(=O)[C@H](CO)NC(=O)[C@H](CC(C)C)NC(=O)CNC(=O)[C@H](CCCCN)NC(=O)[C@H](CCCCN)NC(=O)[C@H](CCC(N)=O)NC(=O)[C@H](C)NC(=O)CNC(=O)[C@H](CCCCN)NC(=O)[C@H](Cc2ccc(O)cc2)NC(=O)[C@H](CCCCN)NC(=O)[C@H](CCCNC(=N)N)NC(=O)[C@H](C)NC(=O)[C@H](CCC(N)=O)NC(=O)[C@@H]2CCCN2C(=O)[C@H](Cc2c[nH]cn2)NC(=O)[C@H](CCC(=O)O)NC(=O)[C@H](CCC(N)=O)NC(=O)COCCOCCNC(=O)COCCOCCNC(=O)CC[C@H](NC(=O)CC[C@H](NC(=O)CC[C@H](NC(=O)CC[C@H](NC(=O)CC[C@H](NC(=O)CCCCCCCCCCCCCCCCC(=O)O)C(=O)O)C(=O)O)C(=O)O)C(=O)O)C(=O)O)CSSC[C@@H](C(=O)O)NC(=O)CNC(=O)[C@H](CC(C)C)NC(=O)CNC(=O)[C@H](CO)NC(=O)[C@H](CC(C)C)NC(=O)[C@H](CO)NC(=O)CNC1=O [compound 1474] ({C18 diacid-γGlu-γGlu-γGlu-γGlu-γGlu-AEEA-AEEA}-QEHPQARKYKGAQKKGLSKGCFGLPLDRIGSLSGLGC-OH; disulfide 21-37; C-terminus assumed), CC[C@H](C)[C@@H]1NC(=O)[C@H](CCCNC(=N)N)NC(=O)[C@H](CC(=O)O)NC(=O)[C@H](CC(C)C)NC(=O)[C@@H]2CCCN2C(=O)[C@H](CC(C)C)NC(=O)CNC(=O)[C@H](Cc2ccccc2)NC(=O)[C@@H](NC(=O)CNC(=O)[C@H](CCC(N)=O)NC(=O)[C@H](CO)NC(=O)[C@H](CC(C)C)NC(=O)CNC(=O)[C@H](CCCCN)NC(=O)[C@H](CCCCN)NC(=O)[C@H](CCC(N)=O)NC(=O)[C@H](C)NC(=O)CNC(=O)[C@H](CCCCN)NC(=O)[C@H](Cc2ccc(O)cc2)NC(=O)COCCOCCNC(=O)COCCOCCNC(=O)COCCOCCNC(=O)COCCOCCNC(=O)CC[C@H](NC(=O)CC[C@H](NC(=O)CCCCCCCCCCCCCCCCC(=O)O)C(=O)O)C(=O)O)CSSC[C@@H](C(=O)O)NC(=O)CNC(=O)[C@H](CC(C)C)NC(=O)CNC(=O)[C@H](CO)NC(=O)[C@H](CC(C)C)NC(=O)[C@H](CO)NC(=O)CNC1=O [compound 1478] ({C18 diacid-γGlu-γGlu-AEEA-AEEA-AEEA-AEEA}-YKGAQKKGLSQGCFGLPLDRIGSLSGLGC-OH; disulfide 13-29; C-terminus assumed) is lower in “LagTime (h) at pH 4.0” value: 45 h for the first, 0.33 h for the second.

In the case of CC[C@H](C)[C@@H]1NC(=O)[C@H](CCCNC(=N)N)NC(=O)[C@H](CCC(=O)O)NC(=O)[C@H](CC(C)C)NC(=O)[C@@H]2CCCN2C(=O)[C@H](CC(C)C)NC(=O)CNC(=O)[C@H](Cc2ccccc2)NC(=O)[C@@H](NC(=O)CNC(=O)[C@H](CCC(N)=O)NC(=O)[C@H](CO)NC(=O)CNC(=O)CNC(=O)[C@H](CCCCN)NC(=O)[C@H](CCCCN)NC(=O)[C@H](CCC(N)=O)NC(=O)[C@H](C)NC(=O)CNC(=O)[C@H](CCCCN)NC(=O)[C@H](Cc2ccc(O)cc2)NC(=O)COCCOCCNC(=O)COCCOCCNC(=O)COCCOCCNC(=O)COCCOCCNC(=O)CC[C@H](NC(=O)CC[C@H](NC(=O)CCCCCCCCCCCCCCCCC(=O)O)C(=O)O)C(=O)O)CSSC[C@@H](C(=O)O)NC(=O)CNC(=O)[C@H](CC(C)C)NC(=O)CNC(=O)[C@H](CO)NC(=O)[C@H](CC(C)C)NC(=O)[C@H](CO)NC(=O)CNC1=O [compound 1489] ({C18 diacid-γGlu-γGlu-AEEA-AEEA-AEEA-AEEA}-YKGAQKKGGSQGCFGLPLERIGSLSGLGC-OH; disulfide 13-29), the “LagTime (h) at pH 4.0” value is reported as 45 h.

From patent US20240209028A1, “CNP COMPOUNDS” (priority 2022, published 2024)
